Source: US8846393B2, “Methods of improving stem cell homing and engraftment” (Gamida-Cell Ltd., priority 2005, dated 2014)

Columns and labels:
NOD/SCID mice = test: Transplantation of human CD34+ cells into NOD/SCID mice, engraftment and quantification of SCID repopulating cells; type: in vivo; settings: for engraftment (mice positively engrafted): 3-weeks with cytokines+NA, 4-weeks post transplantation
Description: FIGS. 4a-4f is a graphic representation of the effect of nicotinamide on homing and engraftment of human hematopoietic cells transplanted into NOD/SCID mice. FIGS. 4a and 4b show the percentage of human (CD45+) cells in the cell populations before transplantation: non-cultured CD34^+ cells (non-cultured, gray ovals), the entire progeny of cultures following 3-week exposure to cytokines alone (cytokines alone, closed ovals), or cytokines and nicotinamide (cytokines+NA, arrows). The percent of engraftment 4 weeks post transplantation was determined by flow cytometry of human CD45 cells in the NOD/SCID marrow (y-axis). The numbers of SCID repopulating cells (SRC) were calculated by plotting the engraftment frequencies at each dose. The resultant curves indicates the estimated frequency of SRCs within non-cultured CD34+ cells (FIG. 4c), culture with cytokines (FIG. 4d) or cytokines and nicotinamide (FIG. 4e). The number shown in each box indicates the calculated frequency of SRCs using the maximum likelihood estimator. […] Mouse bone marrow cells were dually stained with FITC-conjugated anti-CD45 (human) and antibodies to human differentiation markers as indicated. Percentages of dual positive cells are shown within each quadrant. Note the greater than 7 fold enhancement of engraftment in the nicotinamide-treated mice (FIG. 4e), as compared with mice treated with cytokines alone (FIG. 4d); FIGS. 5a-5c are a graphic representation of the effect of nicotinamide (NA) on the engraftment potential of cells cultured under differentiation-promoting conditions. Cultures were initiated with purified cord blood-derived CD34+ cells in medium supplemented with SCF, TPO, IL-6 and FLT3, 50 ng/ml each, and IL-3, 20 ng/ml, with (cytokines+NA, arrows) or without (cytokines, ovals) 10 mM nicotinamide. After 3 weeks, cells were harvested, and transplanted into SCID mice as indicated. Mice were transplanted with 1.25−5×10^4 CD34+ cells or with their progeny following expansion. Mice were sacrificed 4 weeks later and bone marrow cells were analyzed by FACS for the presence of CD34+ (human progenitor) and CD45+ (human) cells. Mice were scored as engrafted when the number of human (CD45+) cells constituted […] of the marrow population. […] FIGS. 4b and 4c show the percentage of total human (CD45+) (FIG. 4b) cells and human progenitor (CD45+CD34+) (FIG. 4c) cells in the bone marrow of mice transplanted with cells derived from culture initiated with 1.25×10^4 CD34+ cells. Note the enhanced engraftment of both total human, and human progenitor cells resulting from nicotinamide treatment. Purified CD34+ cells were cultured in culture bags (American Fluoroseal Co., Gaithersburg, Md.) at 1×10^4 cells/ml in MEMα medium, 10% fetal calf serum (FCS) and cytokines: Thrombopoietin (TPO), interleukin-6 (IL-6), FLT-3 ligand and stem cell factor (SCF), each at a final concentration of 50 ng/ml (Perpo Tech, Inc., Rocky Hill, N.J.), with or without 5 mM nicotinamide (NA) (Sigma Aldrich, Milwaukee, Wis.) and incubated at 37° C. in a humidified atmosphere of 5% CO2 in air. […] Until week 3, the cultures were topped weekly with the same volume of fresh medium and then weekly demi-depopulated. Cell counting, colony forming unit (CFUc) assay and immunophenotype analysis were performed as described hereinbelow. NOD/SCID mice were bred and maintained in sterile intra-ventilated cages (Techniplast, Bugugiatte, Italy). Eight-week-old mice were sub-lethally irradiated as described above. […]

VLA-4 = test: Shear flow experiments, VLA4-mediated binding to immobilized VCAM-1; type: cell-based, human; settings: CD34+ cells cultured with cytokines and nicotinamide
Method: FIG. 3 is a graph showing the effect of nicotinamide on VLA4-mediated binding of cells to immobilized adhesion molecules under shear flow. CD34+ cells cultured as described in FIGS. 1 and 2 hereinabove were assayed for capture and arrest under shear stress, on immobilized VCAM-1 adsorbed as 10 μl dots on polystyrene. Cell settling events, and arrest were analyzed under perfusion (shear stress) by video photography. Assayed cell populations were cells before culture (non-cultured, open circles), cells cultured with cytokines, as described in FIG. 2 (cultured, closed circles), and cells cultured with cytokines and nicotinamide (cultured+NA, closed triangles). […]
Soluble purified seven-domain human VCAM-1, sVCAM-1 was mixed in coating medium (PBS buffered with 20 mM sodium bicarbonate pH, 8.5) with a fixed amount of carrier (2 μg/ml HSA) and adsorbed as 10-μl spots on polystyrene plates (Becton Dickinson and Co, San Jose, Calif., USA) for 2 hours at 37° C., alone or with the indicated amounts of intact or heat-inactivated chemokines. […] VCAM-1 site densities were assessed using ^125I-labeled anti-VCAM-1 mAb, 4B9. […] The entire duration of cell perfusions were recorded on a videotape with a long integration LIS-700 CCD video camera (Applitech Rigicam, Israel) and a Time Lapse SVHS-Video recorder (AG-6730; Panasonic, Japan). […]

With `NC(=O)c1cccnc1` [nicotinamide] the “mice with human (CD45+) cells in bone marrow” value (NOD/SCID mice; IL-3 supplemented cultures (SCF, TPO, IL-6, FLT3, IL-3) with 10 mM nicotinamide, 1.25×10^4 cells, 4 weeks) was 5 out of 5, the “engraftment of human progenitors (CD45+CD34+)” value (NOD/SCID mice; IL-3 supplemented cultures with 10 mM nicotinamide, 4-weeks after transplantation) was “observed only in mice transplanted with cells cultured with nicotinamide” and the “number of SRCs relative to non-cultured cells” value (NOD/SCID mice; culture with nicotinamide and cytokines) was 14 fold. For the same compound, the “engraftment (mice positively engrafted)” value (NOD/SCID mice; progeny of 3×10^3 CB CD34+ cells) was 50%, the “engraftment (mice positively engrafted)” value (NOD/SCID mice; progeny of 6×10^3 CD34+ cells) was 100% and the “percentage of initially settled cells resistant to removal by shear stress” value (VLA-4) was “significantly enhanced”.
